Where “and” joins values, the source holds several entries; their conditions need not be identical. Equal entries are not always repeated. No end group written: not given here.
Experiments:
[1] = test system: Escherichia coli (ML35); assay type: cell-based; settings: E. coli ML35; 1 × 10^7 CFU/mL; 1% TSB, 10 mM Hepes; 10, 20 and 30 μM peptide, 1 h at 37 °C; serial dilution, 18 h at 37 °C in complete TSB; turbidity; duplicate
Description: (§1) The strains used, Staphylococcus aureus (ATCC 25923) and Escherichia coli (ML35), were obtained from the Public Health Institute of Chile (ISP).
(§2) To determine the antibacterial activity of the peptides, a microplate dilution test was performed. The necessary calculations were completed with a bacterial concentration of 1 × 10^7 CFU/mL and the cells were exposed to 50 µL of Tryptic soy broth (TSB) with 1%, 10 mM of Hepes buffer and 10, 20 and 30 μM of peptide for 1 h at 37 °C. Finally, a serial dilution was performed and incubated for 18 h at 37 °C in complete TSB, and the minimum bactericidal concentration (MCB) was determined depending on the turbidity of the plate. All experiments were completed in duplicate. A synthetic peptide of sequence KKWRWWLKALAKK from the venom of the Bothrops asper snake was used as a positive control for growth inhibition.

[2] = test system: Staphylococcus aureus (ATCC 25923); assay type: cell-based; settings: S. aureus ATCC 25923; 1 × 10^7 CFU/mL; 1% TSB, 10 mM Hepes; 10, 20 and 30 μM peptide, 1 h at 37 °C; serial dilution, 18 h at 37 °C in complete TSB; turbidity; duplicate
Description: as §1, §2

[3] = test system: E coli; assay: Membrane permeabilization by SYTOX green assay; assay type: cell-based, Escherichia coli; settings: E. coli 1 × 10^6 CFU/mL in PBS 1X; 90 µL bacteria, 5 µL peptide at 200 µM, 5 µL SYTOX Green at 100 µM; 30 cycles of one minute at 30 °C; triplicate
Description: (§3) To verify the effect of peptides on cell membrane integrity, a SYTOX green uptake assay was used, as previously described. Briefly, E coli and S. aureus cultures in exponential phase of growth were centrifuged at 2000× g for 5 min and washed with PBS 1X to prepare a solution at a concentration of 1 × 10^6 CFU/mL in PBS 1X. Then, in 100 μL qPCR tubes, 90 µL of the bacterial solution, 5 µL of peptide at 200 µM and 5 µL of SYTOX Green dye at 100 µM were added. The q-PCR tubes were placed in an Applied Biosystems StepOnePlus™ Real-Time PCR Systems thermocycler, programmed with 30 cycles for one minute at 30 °C, using the Syber green filter, recording the fluorescence data at the end of each cycle. Each assay was performed in triplicate.

[4] = test system: S. aureus; assay: Membrane permeabilization by SYTOX green assay; assay type: cell-based, Staphylococcus aureus; settings: S. aureus 1 × 10^6 CFU/mL in PBS 1X; 90 µL bacteria, 5 µL peptide at 200 µM, 5 µL SYTOX Green at 100 µM; 30 cycles of one minute at 30 °C; triplicate
Description: as §3

Row | Compound | Minimum Bactericidal Concentration [1] [µM] | Minimum Bactericidal Concentration [2] [µM] | also measured
1 | C[C@H](N)C(=O)N[C@@H](CCCNC(=N)N)C(=O)N[C@@H](CCCNC(=N)N)C(=O)N[C@@H](CCCNC(=N)N)C(=O)N[C@@H](CCCNC(=N)N)C(=O)N[C@@H](CCCNC(=N)N)C(=O)N[C@@H](CCCNC(=N)N)C(=O)N[C@@H](CCCNC(=N)N)C(=O)N[C@@H](CCCNC(=N)N)C(=O)N[C@@H](CCCNC(=N)N)C(=O)N[C@@H](CCCNC(=N)N)C(N)=O [A1] | >30 |  | 
2 | C[C@H](NC(=O)[C@H](CCCNC(=N)N)NC(=O)[C@H](CCCNC(=N)N)NC(=O)[C@H](CCCNC(=N)N)NC(=O)[C@H](CCCNC(=N)N)NC(=O)[C@H](CCCNC(=N)N)NC(=O)[C@H](CCCNC(=N)N)NC(=O)[C@H](CCCNC(=N)N)NC(=O)[C@H](CCCNC(=N)N)NC(=O)[C@H](CCCNC(=N)N)NC(=O)[C@@H](N)CCCNC(=N)N)C(N)=O [A11] | 20 | 8 | Percentage of polyproline II, Equation (2): 49% (2×) and 45% and 50%
3 | CC(C)C[C@H](N)C(=O)N[C@@H](CCCNC(=N)N)C(=O)N[C@@H](CCCNC(=N)N)C(=O)N[C@@H](CCCNC(=N)N)C(=O)N[C@@H](CCCNC(=N)N)C(=O)N[C@@H](CCCNC(=N)N)C(=O)N[C@@H](CCCNC(=N)N)C(=O)N[C@@H](CCCNC(=N)N)C(=O)N[C@@H](CCCNC(=N)N)C(=O)N[C@@H](CCCNC(=N)N)C(=O)N[C@@H](CCCNC(=N)N)C(N)=O [L1] | 13 | 9 | 
4 | CC(C)C[C@H](NC(=O)[C@H](CCCNC(=N)N)NC(=O)[C@H](CCCNC(=N)N)NC(=O)[C@H](CCCNC(=N)N)NC(=O)[C@H](CCCNC(=N)N)NC(=O)[C@H](CCCNC(=N)N)NC(=O)[C@H](CCCNC(=N)N)NC(=O)[C@H](CCCNC(=N)N)NC(=O)[C@H](CCCNC(=N)N)NC(=O)[C@H](CCCNC(=N)N)NC(=O)[C@@H](N)CCCNC(=N)N)C(N)=O [L11] | 30 |  | 
5 | N=C(N)NCCC[C@H](NC(=O)[C@H](CCCNC(=N)N)NC(=O)[C@H](CCCNC(=N)N)NC(=O)[C@H](CCCNC(=N)N)NC(=O)[C@H](CCCNC(=N)N)NC(=O)[C@H](CCCNC(=N)N)NC(=O)[C@H](CCCNC(=N)N)NC(=O)[C@H](CCCNC(=N)N)NC(=O)[C@H](CCCNC(=N)N)NC(=O)[C@H](CCCNC(=N)N)NC(=O)[C@@H]1CCCN1)C(N)=O [P1] | 18 |  | 
6 | N=C(N)NCCC[C@H](NC(=O)[C@H](CCCNC(=N)N)NC(=O)[C@H](CCCNC(=N)N)NC(=O)[C@H](CCCNC(=N)N)NC(=O)[C@H](CCCNC(=N)N)NC(=O)[C@@H](N)CCCNC(=N)N)C(=O)N[C@@H](CCCNC(=N)N)C(=O)N[C@@H](CCCNC(=N)N)C(=O)N[C@@H](CCCNC(=N)N)C(=O)N[C@@H](CCCNC(=N)N)C(=O)N1CCC[C@H]1C(N)=O [P11] | 30 | 18 | 
7 | N=C(N)NCCC[C@H](NC(=O)[C@H](CCCNC(=N)N)NC(=O)[C@H](CCCNC(=N)N)NC(=O)[C@H](CCCNC(=N)N)NC(=O)[C@H](CCCNC(=N)N)NC(=O)[C@H](CCCNC(=N)N)NC(=O)[C@H](CCCNC(=N)N)NC(=O)[C@H](CCCNC(=N)N)NC(=O)[C@H](CCCNC(=N)N)NC(=O)[C@H](CCCNC(=N)N)NC(=O)[C@@H](N)CCCNC(=N)N)C(N)=O [R11] | 30 |  | 
8 | N=C(N)NCCC[C@H](NC(=O)[C@H](CCCNC(=N)N)NC(=O)[C@H](CCCNC(=N)N)NC(=O)[C@H](CCCNC(=N)N)NC(=O)[C@H](CCCNC(=N)N)NC(=O)[C@H](CCCNC(=N)N)NC(=O)[C@H](CCCNC(=N)N)NC(=O)[C@H](CCCNC(=N)N)NC(=O)[C@H](CCCNC(=N)N)NC(=O)[C@H](CCCNC(=N)N)NC(=O)[C@@H](N)Cc1c[nH]c2ccccc12)C(N)=O [W1] | 30 | >30 | 
9 | N=C(N)NCCC[C@H](NC(=O)[C@H](CCCNC(=N)N)NC(=O)[C@H](CCCNC(=N)N)NC(=O)[C@H](CCCNC(=N)N)NC(=O)[C@H](CCCNC(=N)N)NC(=O)[C@H](CCCNC(=N)N)NC(=O)[C@H](CCCNC(=N)N)NC(=O)[C@H](CCCNC(=N)N)NC(=O)[C@H](CCCNC(=N)N)NC(=O)[C@@H](N)CCCNC(=N)N)C(=O)N[C@@H](Cc1c[nH]c2ccccc12)C(N)=O [W11] | 20 | 10 | 
10 | KKWRWWLKALAKK |  |  | SYTOX green fluorescence (membrane permeabilization) [3]: high fluorescence; SYTOX green fluorescence (membrane permeabilization) [4]: high fluorescence
11 | RARRRRRRRRR-NH2 [A2] | 18 |  | 
12 | RLRRRRRRRRR-NH2 [L2] | 8 | 12 | 
13 | RPRRRRRRRRR-NH2 [P2] | 30 |  | 
14 | RRARRRRRRRR-NH2 [A3] | 10 |  | 
15 | RRLRRRRRRRR-NH2 [L3] | 10 | 9 | 
16 | RRPRRRRRRRR-NH2 [P3] | 28 | 8 | 
17 | RRRARRRRRRR-NH2 [A4] | 26 |  | Percentage of polyproline II, Equation (2): 46% (2×) and 58% and 51%
18 | RRRLRRRRRRR-NH2 [L4] | 20 | 9 | 
19 | RRRPRRRRRRR-NH2 [P4] | >30 |  | Percentage of polyproline II, Equation (2): 49% (2×) and 29% and 41%
20 | RRRRARRRRRR-NH2 [A5] | 20 |  | 
21 | RRRRLRRRRRR-NH2 [L5] | 18 | 8 | 
22 | RRRRPRRRRRR-NH2 [P5] | 28 | 8 | 
23 | RRRRRARRRRR-NH2 [A6] | 26 |  | 

Row | Compound | Minimum Bactericidal Concentration [1] [µM] | Minimum Bactericidal Concentration [2] [µM] | also measured
24 | RRRRRLRRRRR-NH2 [L6] | >30 | 28 | 
25 | RRRRRPRRRRR-NH2 [P6] | 18 |  | 
26 | RRRRRRARRRR-NH2 [A7] | 20 |  | 
27 | RRRRRRLRRRR-NH2 [L7] | 9 |  | 
28 | RRRRRRPRRRR-NH2 [P7] | 10 | 7 | 
29 | RRRRRRRARRR-NH2 [A8] | 30 |  | 
30 | RRRRRRRLRRR-NH2 [L8] | 18 |  | Percentage of polyproline II, Equation (2): 51% and 65% (2×) and 62%
31 | RRRRRRRPRRR-NH2 [P8] | 30 | 9 | Percentage of polyproline II, Equation (2): 49% (2×) and 40% and 50%
32 | RRRRRRRRARR-NH2 [A9] | >30 |  | 
33 | RRRRRRRRLRR-NH2 [L9] | 8 |  | 
34 | RRRRRRRRPRR-NH2 [P9] | 20 | 10 | Percentage of polyproline II, Equation (2): 41% (2×) and 27% and 43%
35 | RRRRRRRRRAR-NH2 [A10] | 10 | 6 | 
36 | RRRRRRRRRLR-NH2 [L10] | 20 |  | 
37 | RRRRRRRRRPR-NH2 [P10] | 30 | 30 | 
38 | RRRRRRRRRWR-NH2 [W10] | 20 |  | Percentage of polyproline II, Equation (2): 46% and 68% and 49% (2×)
39 | RRRRRRRRWRR-NH2 [W9] | 20 | 10 | 
40 | RRRRRRRWRRR-NH2 [W8] | 20 | 20 | 
41 | RRRRRRWRRRR-NH2 [W7] | 14 | 8 | 
42 | RRRRRWRRRRR-NH2 [W6] | 15 | 20 | 
43 | RRRRWRRRRRR-NH2 [W5] | 20 | 10 | 
44 | RRRWRRRRRRR-NH2 [W4] | 20 | 20 | 
45 | RRWRRRRRRRR-NH2 [W3] | >30 | 20 | 
46 | RWRRRRRRRRR-NH2 [W2] | >30 | 30 | Percentage of polyproline II, Equation (2): 56% (2×) and 64% and 47%
